Measurements from US20230295234A1, “ANTIMICROBIAL PEPTIDOMIMETICS” (SPEXIS AG, priority 2020, published 2023).
Read-outs that look alike come from different tables or passages of the source. Peptide text beside a SMILES is read from it.

Legend:
[1] = tested on: human red blood cells (hRBC); test: Hemolysis of human red blood cells; type: cell-based
Method in brief: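 PBS-washed human red blood cells (20% v/v) were incubated with peptide at 200 μg/mL for 1 h at 37 °C with shaking. Supernatant OD was read at 540 nm after 8-fold dilution. Hemolysis is expressed as percent of the water control.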

[2] = tested on: Escherichia coli ATCC 25922
Method in brief: (§1)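 Broth microdilution; cation-adjusted MHII; inoculum ~5×10^5 CFU/mL from 0.5 McFarland saline suspension; peptide two-fold serial dilutions; polysorbate 80 0.002% final; peptide stock 1 mg/mL in water.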

[3] = tested on: Klebsiella pneumoniae SSI3010
Method in brief: as §1

[4] = tested on: Escherichia coli MCR-1 Af 45
Method in brief: as §1

[5] = Mueller-Hinton broth II, 18-20 hours at 35° C.

Row | Escherichia coli MCR-1 Af 45 MIC ([4]; MCR-1 Af 45) [mg/L] | Compound | Hemolysis at 0.2 g/L ([1]; red cells of human, 1 h) [%] | Escherichia coli ATCC 25922 MIC ([2]; ATCC 25922) [mg/L] | Klebsiella pneumoniae SSI3010 MIC ([3]; SSI3010) [mg/L] | Escherichia coli MCR-1 Af 45 MIC [4, 5] [mg/L] | Hemolysis at 0.2 g/L ([1]; 20% hRBC, 1 h at 37° C.) [%] | Escherichia coli ATCC 25922 MIC [2, 5] [mg/L] | Klebsiella pneumoniae SSI3010 MIC [3, 5] [mg/L]
1 | 0.25 | CC[C@H](C)[C@H](NC(=O)[C@@H](NC(=O)[C@@H]1CCCN1C(=O)[C@@H](NC(=O)[C@@H]1C[C@@H](N)CN1C(=O)[C@H](CCCCN)NC(=O)[C@@H](N)CCCCN)C(C)C)[C@@H](C)CC)C(=O)N[C@@H](Cc1ccc(O)cc1)C(=O)N[C@H]1CCC(=O)NCC[C@@H](C(=O)N[C@@H](CCN)C(=O)N[C@@H](CCCNC(=N)N)C(=O)N[C@@H](Cc2ccc(O)cc2)C(=O)O)NC(=O)[C@H](CCCCN)NC(=O)[C@@H](CCN)NC(=O)[C@H]([C@@H](C)O)NC(=O)[C@H](CCN)NC(=O)[C@H](CCCNC(=N)N)NC(=O)[C@H](CC(N)=O)NC1=O [Example 133] (HELM PEPTIDE1{K.K.[N[C@@H]1C[C@@H](C(=O)[*:2])N([*:1])C1].V.P.I.I.Y.E.N.R.[Dab].T.[NCC[C@@H](N[*:1])C(=O)[*:2]].K.[Dab].[Dab].R.Y}$PEPTIDE1,PEPTIDE1,9:R3-16:R3$$$V2.0) | 0 | 0.25 | 0.25 |  |  |  | 
2 |  | CCCC[C@H](NC(=O)[C@H](CCCNC(=N)N)NC(=O)[C@H](CCN)NC(=O)[C@@H]1CSSC[C@H](NC(=O)[C@H](Cc2ccc(O)cc2)NC(=O)[C@@H](NC(=O)[C@@H](NC(=O)[C@@H]2CCCN2C(=O)[C@@H](N)C(C)C)[C@@H](C)CC)[C@@H](C)CC)C(=O)N[C@@H](CC(N)=O)C(=O)N[C@@H](CCCNC(=N)N)C(=O)N[C@@H](CCCNC(=N)N)C(=O)N[C@@H]([C@@H](C)O)C(=O)N[C@H](CCN)C(=O)N[C@@H](CCCCN)C(=O)N1)C(=O)O [Example 134] (HELM PEPTIDE1{V.P.I.I.Y.C.N.R.R.T.[NCC[C@@H](N[*:1])C(=O)[*:2]].K.C.[Dab].R.[Nle]}$PEPTIDE1,PEPTIDE1,6:R3-13:R3$$$V2.0) | 0 | 0.0625 | 0.125 | 0.0625 |  |  | 
3 |  | CCCC[C@H](NC(=O)[C@H](CCCNC(=N)N)NC(=O)[C@H](CCN)NC(=O)[C@@H]1CSSC(C)(C)[C@H](NC(=O)[C@H](Cc2ccc(O)cc2)NC(=O)[C@@H](NC(=O)[C@@H](NC(=O)[C@@H]2C[C@@H](N)CN2C(=O)[C@@H](N)C(C)C)[C@@H](C)CC)[C@@H](C)CC)C(=O)N[C@@H](CC(N)=O)C(=O)N[C@@H](CCCNC(=N)N)C(=O)N[C@@H](CCCNC(=N)N)C(=O)N[C@@H]([C@@H](C)O)C(=O)N[C@H](CCN)C(=O)N[C@@H](CCCCN)C(=O)N1)C(=O)O [Example 135] (HELM PEPTIDE1{V.[N[C@@H]1C[C@@H](C(=O)[*:2])N([*:1])C1].I.I.Y.[Pen].N.R.R.T.[NCC[C@@H](N[*:1])C(=O)[*:2]].K.C.[Dab].R.[Nle]}$PEPTIDE1,PEPTIDE1,6:R3-13:R3$$$V2.0) |  |  |  | 0.0625 | 0 | 0.0625 | 0.125
4 |  | CCCC[C@H](NC(=O)[C@H](CCCNC(=N)N)NC(=O)[C@H](CCN)NC(=O)[C@@H]1CSSC(C)(C)[C@H](NC(=O)[C@H](Cc2ccc(O)cc2)NC(=O)[C@@H](NC(=O)[C@@H](NC(=O)[C@@H]2C[C@@H](N)CN2C(=O)[C@@H](N)C(C)C)[C@@H](C)CC)[C@@H](C)CC)C(=O)N[C@@H](CC(N)=O)C(=O)N[C@@H](CCCNC(=N)N)C(=O)N[C@@H](CCN)C(=O)N[C@@H]([C@@H](C)O)C(=O)N[C@H](CCN)C(=O)N[C@@H](CCCCN)C(=O)N1)C(=O)O [Example 136] (HELM PEPTIDE1{V.[N[C@@H]1C[C@@H](C(=O)[*:2])N([*:1])C1].I.I.Y.[Pen].N.R.[Dab].T.[NCC[C@@H](N[*:1])C(=O)[*:2]].K.C.[Dab].R.[Nle]}$PEPTIDE1,PEPTIDE1,6:R3-13:R3$$$V2.0) | 0 | 0.125 | 0.125 | 0.0625 |  |  | 
5 |  | CCCC[C@H](NC(=O)[C@H](CCCNC(=N)N)NC(=O)[C@H](CCN)NC(=O)[C@@H]1CSSC(C)(C)[C@H](NC(=O)[C@H](Cc2ccc(O)cc2)NC(=O)[C@@H](NC(=O)[C@@H](NC(=O)CN(CCN)C(=O)[C@@H](N)C(C)C)[C@@H](C)CC)[C@@H](C)CC)C(=O)N[C@@H](CC(N)=O)C(=O)N[C@@H](CCCNC(=N)N)C(=O)N[C@@H](CCN)C(=O)N[C@@H]([C@@H](C)O)C(=O)N[C@H](CCN)C(=O)N[C@@H](CCCCN)C(=O)N1)C(=O)O [Example 137] (HELM PEPTIDE1{V.[NCCN(CC(=O)[*:2])[*:1]].I.I.Y.[Pen].N.R.[Dab].T.[NCC[C@@H](N[*:1])C(=O)[*:2]].K.C.[Dab].R.[Nle]}$PEPTIDE1,PEPTIDE1,6:R3-13:R3$$$V2.0) | 0 | 0.125 | 0.25 | 0.0625 |  |  | 
6 |  | CCCC[C@H](NC(=O)[C@H](CCCNC(=N)N)NC(=O)[C@H](CCN)NC(=O)[C@@H]1CSSC(C)(C)[C@H](NC(=O)[C@H](Cc2ccc(O)cc2)NC(=O)[C@@H](NC(=O)[C@@H](NC(=O)[C@@H]2C[C@@H](N)CN2C(=O)[C@@H](N)C(C)C)[C@@H](C)CC)[C@@H](C)O)C(=O)N[C@@H](CC(N)=O)C(=O)N[C@@H](CCCNC(=N)N)C(=O)N[C@@H](CCN)C(=O)N[C@@H]([C@@H](C)O)C(=O)N[C@H](CCN)C(=O)N[C@@H](CCCCN)C(=O)N1)C(=O)O [Example 138] (HELM PEPTIDE1{V.[N[C@@H]1C[C@@H](C(=O)[*:2])N([*:1])C1].I.T.Y.[Pen].N.R.[Dab].T.[NCC[C@@H](N[*:1])C(=O)[*:2]].K.C.[Dab].R.[Nle]}$PEPTIDE1,PEPTIDE1,6:R3-13:R3$$$V2.0) | 0 | 0.125 | 0.25 | 0.0625 |  |  | 
7 |  | CC[C@H](C)[C@H](NC(=O)[C@@H](NC(=O)[C@@H]1CCCN1C(=O)[C@@H](N)C(C)C)[C@@H](C)CC)C(=O)N[C@@H](Cc1ccc(O)cc1)C(=O)N[C@H]1CSSC[C@@H](C(=O)N[C@@H](CCN)C(=O)N[C@@H](CCCNC(=N)N)C(=O)N[C@@H](CC2CCCCC2)C(=O)O)NC(=O)[C@H](CCCCN)NC(=O)[C@@H](CCN)NC(=O)[C@H]([C@@H](C)O)NC(=O)[C@H](CCN)NC(=O)[C@H](CCCNC(=N)N)NC(=O)[C@H](CC(N)=O)NC1=O [Example 139] (HELM PEPTIDE1{V.P.I.I.Y.C.N.R.[Dab].T.[NCC[C@@H](N[*:1])C(=O)[*:2]].K.C.[Dab].R.[Cha]}$PEPTIDE1,PEPTIDE1,6:R3-13:R3$$$V2.0) | 0 | 0.0625 | 0.125 | 0.0625 |  |  | 
8 |  | CC[C@H](C)[C@H](NC(=O)[C@@H](NC(=O)[C@@H]1CCCN1C(=O)[C@@H](N)C(C)C)[C@@H](C)CC)C(=O)N[C@@H](Cc1ccc(O)cc1)C(=O)N[C@@H]1C(=O)N[C@@H](CC(N)=O)C(=O)N[C@@H](CCCNC(=N)N)C(=O)N[C@@H](CCN)C(=O)N[C@@H]([C@@H](C)O)C(=O)N[C@H](CCN)C(=O)N[C@@H](CCCCN)C(=O)N[C@H](C(=O)N[C@@H](CCN)C(=O)N[C@@H](CCCNC(=N)N)C(=O)N[C@@H](Cc2ccc(O)cc2)C(=O)O)CSSC1(C)C [Example 140] (HELM PEPTIDE1{V.P.I.I.Y.[Pen].N.R.[Dab].T.[NCC[C@@H](N[*:1])C(=O)[*:2]].K.C.[Dab].R.Y}$PEPTIDE1,PEPTIDE1,6:R3-13:R3$$$V2.0) |  |  |  | 0.0625 | 0 | 0.0625 | 0.125
9 |  | CC[C@H](C)[C@H](NC(=O)[C@@H](NC(=O)[C@@H]1CCCN1C(=O)[C@@H](N)C(C)C)[C@@H](C)CC)C(=O)N[C@@H](Cc1ccc(O)cc1)C(=O)N[C@H]1CSSC(C)(C)[C@@H](C(=O)N[C@@H](CCN)C(=O)N[C@@H](CCCNC(=N)N)C(=O)N[C@@H](Cc2ccc(O)cc2)C(=O)O)NC(=O)[C@H](CCCCN)NC(=O)[C@@H](CCN)NC(=O)[C@H]([C@@H](C)O)NC(=O)[C@H](CCN)NC(=O)[C@H](CCCNC(=N)N)NC(=O)[C@H](CC(N)=O)NC1=O [Example 141] (HELM PEPTIDE1{V.P.I.I.Y.C.N.R.[Dab].T.[NCC[C@@H](N[*:1])C(=O)[*:2]].K.[Pen].[Dab].R.Y}$PEPTIDE1,PEPTIDE1,6:R3-13:R3$$$V2.0) | 0 | 0.0625 | 0.25 | 0.0625 |  |  | 
10 |  | CC[C@H](C)[C@H](NC(=O)[C@@H](NC(=O)[C@@H]1C[C@@H](N)CN1C(=O)[C@@H](N)C(C)C)[C@@H](C)CC)C(=O)N[C@@H](Cc1ccc(O)cc1)C(=O)N[C@H]1CSSC[C@@H](C(=O)N[C@@H](CCN)C(=O)N[C@@H](CCCNC(=N)N)C(=O)N[C@@H](Cc2ccc(O)cc2)C(=O)O)NC(=O)[C@H](CCCCN)NC(=O)[C@@H](CCN)NC(=O)[C@H]([C@@H](C)O)NC(=O)[C@H](CCN)NC(=O)[C@H](CCCNC(=N)N)NC(=O)[C@H](CC(N)=O)NC1=O [Example 142] (HELM PEPTIDE1{V.[N[C@@H]1C[C@@H](C(=O)[*:2])N([*:1])C1].I.I.Y.C.N.R.[Dab].T.[NCC[C@@H](N[*:1])C(=O)[*:2]].K.C.[Dab].R.Y}$PEPTIDE1,PEPTIDE1,6:R3-13:R3$$$V2.0) | 0 | 0.125 | 0.0625 | 0.0625 |  |  | 
